Laboratory results from patent US20060079453A1, “Hla binding peptides and their uses” (priority 2002, published 2006).
Like-named read-outs stand apart in the source and are kept apart here. No end group written: not given here.

Experiments:
Test in all cases: biochemical
Assay type in all cases: binding
HLA-DR DRB1*1101 (DR11) = HLA-DR DRB1*1101 (DR11) (Homo sapiens, UniProt P01903+P01911, A100R/A169T/A87E/I96F/K41T/L162R/M171V/P40S/Q125H/Q178H/Q39Y/Q99D/R42S/S66Y/T262R/V115G/W38E)
HLA-DR DRB1*0401 (DR4) = HLA-DR DRB1*0401 (DR4) (Homo sapiens, UniProt P01903+P01911, A100K/A169T/F76Y/I96L/K127E/L162R/M171V/N62H/P40V/Q125Y/R42H/S133A/S149N/S66Y/V115G/V209L/W38E)
HLA-DR DRB1*0701 (DR7) = HLA-DR DRB1*0701 (DR7) (Homo sapiens, UniProt P01903+P01911, A100R/A102G/A103Q/D57E/D86V/E43K/F76Y/K127E/L162R/M171V/P40G/Q125H/Q99D/R33Q/R42Y/R54Q/S133A/S66F/T210M/V115G/Y107V/Y59L/Y89S)
HLA-DR DRB5*0101 (DR51) = HLA-DR DRB5*0101 (DR51) (Homo sapiens, UniProt P01903+Q30154)
HLA-DR DRB1*1302 (DR13) = HLA-DR DRB1*1302 (DR13) (Homo sapiens, UniProt P01903+P01911, A100E/A169T/K41T/L162R/M171V/P40S/Q125H/Q178H/Q39Y/Q99D/R42S/S66N/T262R/V115G/W38E/Y61H)
Chain of HLA-DR DRB1*1302 (DR13) (P01903 26-254 limits assumed, other chains not shown): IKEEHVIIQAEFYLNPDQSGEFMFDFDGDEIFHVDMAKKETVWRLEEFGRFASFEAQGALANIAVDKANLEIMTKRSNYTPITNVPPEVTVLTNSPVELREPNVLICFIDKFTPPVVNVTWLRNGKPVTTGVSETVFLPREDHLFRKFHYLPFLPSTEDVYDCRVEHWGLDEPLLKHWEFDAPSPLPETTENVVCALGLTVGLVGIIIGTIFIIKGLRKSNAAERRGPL

HLA-DR DRB1*1501 (DR15) = HLA-DR DRB1*1501 (DR15) (Homo sapiens, UniProt P01903+P01911); conditions: read-out: DRBI *1501
HLA-DR DRB4*0101 (DR53) = HLA-DR DRB4*0101 (DR53) (Homo sapiens, UniProt P01903+P13762, G164S)
HLA-DR DRB1*0301 (DR3) = HLA-DR DRB1*0301 (DR3) (Homo sapiens, UniProt P01903+P01911, A100K/A102G/A103R/A169T/F55Y/I96L/K41T/L162R/M171V/P40S/Q125H/Q178H/Q39Y/R42S/S66N/T106N/T262R/W38E/Y61H)
Chain of HLA-DR DRB1*0301 (DR3) (P01903 26-254 limits assumed, other chains not shown): as above

HLA-DR DRB1*0101 (DR1) = HLA-DR DRB1*0101 (DR1) (Homo sapiens, UniProt P01903+P01911, A100R/D57E/F55L/F60I/F76Y/I96L/L162R/M171V/P40L/Q125E/R42F/V115G/Y59C)

Chain of HLA-DR DRB1*1101 (DR11) (P01903 26-254 limits assumed, other chains not shown): as above

TEGRCLHYTVDKSKPK
IC50 (HLA-DR DRB1*1101 (DR11); DRB1 *1101): > 1.25 µM
IC50 (HLA-DR DRB1*0401 (DR4); DRB1 *0401): 0.2 µM
IC50 (HLA-DR DRB1*0701 (DR7); DRB1 *0701): > 250 µM

TGYKVLVLNPSV
IC50 (HLA-DR DRB1*1101 (DR11); read-out: DRB1 *1101): 0.026 µM
IC50 (HLA-DR DRB5*0101 (DR51); read-out: DRB5 *0101): > 11.4 µM
IC50 (HLA-DR DRB1*1302 (DR13); read-out: DRBI *1302): 0.021 µM

TVVYREGNPFGICKL
IC50 (HLA-DR DRB1*1101 (DR11); read-out: DRB1 *1101): > 18 µM
IC50 (HLA-DR DRB5*0101 (DR51); read-out: DRB5 *0101): 48.8 µM
IC50 (HLA-DR DRB1*1302 (DR13); read-out: DRBI *1302): > 13.1 µM

TYSVSFDSLFSAVKN
IC50 (HLA-DR DRB1*1101 (DR11); read-out: DRB1 *1101): 5.98 µM
IC50 (HLA-DR DRB5*0101 (DR51); read-out: DRB5 *0101): 0.061 µM
IC50 (HLA-DR DRB1*1302 (DR13); read-out: DRBI *1302): 5.89 µM
IC50 (HLA-DR DRB1*1501 (DR15)): 3.22 µM

VASLLTTAEVVVTEI
IC50 (HLA-DR DRB1*1101 (DR11); read-out: DRB1 *1101): > 18.7 µM
IC50 (HLA-DR DRB5*0101 (DR51); read-out: DRB5 *0101): > 119 µM
IC50 (HLA-DR DRB1*1302 (DR13); read-out: DRBI *1302): > 10.3 µM
IC50 (HLA-DR DRB4*0101 (DR53); read-out: DRB4 *0101): > 26.4 µM
IC50 (HLA-DR DRB1*1501 (DR15)): > 50.8 µM

VGGVYLLPRRGPRLGV
IC50 (HLA-DR DRB1*0301 (DR3); read-out: DRB1 *0301): 237 µM

VYDFVFADLRGVYRD
IC50 (HLA-DR DRB5*0101 (DR51); read-out: DRB5 *0101): > 51 µM
IC50 (HLA-DR DRB1*1302 (DR13); read-out: DRBI *1302): 0.079 µM
IC50 (HLA-DR DRB1*1501 (DR15)): 0.855 µM

VYQLDIQSTKEDLRV
IC50 (HLA-DR DRB1*1101 (DR11); read-out: DRB1 *1101): 7.35 µM
IC50 (HLA-DR DRB5*0101 (DR51); read-out: DRB5 *0101): 8.69 µM
IC50 (HLA-DR DRB1*1302 (DR13); read-out: DRBI *1302): 0.708 µM
IC50 (HLA-DR DRB4*0101 (DR53); read-out: DRB4 *0101): 0.226 µM

YAGIRRDGLLLRLVD
IC50 (HLA-DR DRB1*0301 (DR3)): 0.0096 µM

YAR(15)ASQTTLKAKT
IC50 (HLA-DR DRB1*1101 (DR11); read-out: DRB1 *1101): 0.0039 µM
IC50 (HLA-DR DRB5*0101 (DR51); read-out: DRB5 *0101): 0.0036 µM
IC50 (HLA-DR DRB1*0101 (DR1); read-out: DRB1 *0101): 0.0015 µM
IC50 (HLA-DR DRB1*0401 (DR4); read-out: DRB1 *0401): 0.00046 µM
IC50 (HLA-DR DRB1*0701 (DR7); read-out: DRB1 *0701): 1.2 µM

YDFVFADLRIVYRDG
IC50 (HLA-DR DRB1*1101 (DR11); read-out: DRB1 *1101): 6.54 µM
IC50 (HLA-DR DRB1*1302 (DR13); read-out: DRBI *1302): 8.17 µM
IC50 (HLA-DR DRB1*1501 (DR15)): 25.7 µM

YEEYVRFDSDVGE
IC50 (HLA-DR DRB1*1101 (DR11); DRB1 *1101): ≥ 200 µM
IC50 (HLA-DR DRB5*0101 (DR51); DRB5 *0101): ≥ 200 µM
IC50 (HLA-DR DRB1*0101 (DR1); DRB1 *0101): ≥ 50 µM
IC50 (HLA-DR DRB1*0401 (DR4); DRB1 *0401): 0.4 µM

YIVMSDWTGGA
IC50 (HLA-DR DRB1*0301 (DR3)): 13.4 µM

YKSAHKGFKGVDAQGTLSKI
IC50 (HLA-DR DRB1*1101 (DR11); DRB1 *1101): 2 µM
IC50 (HLA-DR DRB1*0301 (DR3)): > 900 µM
IC50 (HLA-DR DRB5*0101 (DR51); DRB5 *0101): 1.33 µM
IC50 (HLA-DR DRB1*0101 (DR1); DRB1 *0101): 0.07 µM
IC50 (HLA-DR DRB1*0701 (DR7); DRB1 *0701): 0.108 µM

YNFACTELKLVYRDD
IC50 (HLA-DR DRB1*0301 (DR3)): 0.346 µM
IC50 (HLA-DR DRB1*1302 (DR13); DRBI *1302): 10.2 µM
IC50 (HLA-DR DRB4*0101 (DR53); DRB4 *0101): 12.9 µM
IC50 (HLA-DR DRB1*0101 (DR1); DRB1 *0101): 7.52 µM
IC50 (HLA-DR DRB1*0401 (DR4); DRB1 *0401): 1.98 µM
IC50 (HLA-DR DRB1*0701 (DR7); DRB1 *0701): 2.87 µM

YSYFPSIR
IC50 (HLA-DR DRB1*1101 (DR11); DRB1 *1101): 20 µM
IC50 (HLA-DR DRB1*0301 (DR3)): > 900 µM
IC50 (HLA-DR DRB5*0101 (DR51); DRB5 *0101): > 200 µM
IC50 (HLA-DR DRB1*0101 (DR1); DRB1 *0101): ≥ 50 µM
IC50 (HLA-DR DRB1*0701 (DR7); DRB1 *0701): 7.22 µM
